Toxic doses and inconclusive results are not listed.
Columns and labels:
[1] = system: BDF1 mice, P388 leukemia ip; test: NCI In Vivo Anticancer Drug Screen. Data for tumor model P388 Leukemia (intraperitoneal) in B6D2F1 (BDF1) mice; conditions: endpoint: mean survival time, schedule: Q01DX010 (ip), vehicle: carboxymethylcellulose (CMC), higher = longer survival
Outline: (§1)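 Compound-treated tumour-bearing mice were compared with vehicle-treated controls. Survival was recorded, and the value is the treated-group measurement divided by the control-group measurement (T/C).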

[2] = system: BDF1 mice, P388 leukemia ip, median survival T/C; test: as above; conditions: endpoint: median survival time, higher = longer survival
Outline: as §1

[3] = dose: 50.0 mg/kg/injection, schedule: Q01DX009 (ip), vehicle: saline with Tween-80
[4] = dose: 200.0 mg/kg/injection, schedule: Q01DX009 (ip), vehicle: saline with Tween-80
[5] = dose: 200.0 mg/kg/injection, schedule: Q04DX003 (ip), vehicle: saline with Tween-80

Compound: CC(C)=CC(=O)C1C(=O)c2ccccc2C1=O
- T/C ([1]; dose: 25.0 mg/kg/injection): 93 % of control
- T/C ([1]; dose: 50.0 mg/kg/injection): 101 % of control
- T/C ([1]; dose: 100.0 mg/kg/injection): 101 % of control
- T/C ([1]; dose: 200.0 mg/kg/injection): 96 % of control

Compound: CC(C)(O)CCC(=O)C(C)(O)C1C(O)CC2(C)C3CC=C4C(CC(O)C(=O)C4(C)C)C3(C)C(=O)CC12C (stereo not drawn)
- T/C ([2]; dose: 1.0 mg/kg/injection, schedule: Q01DX010 (ip), vehicle: carboxymethylcellulose (CMC)): 121 % of control
- T/C ([2]; dose: 2.0 mg/kg/injection, schedule: Q01DX010 (ip), vehicle: carboxymethylcellulose (CMC)): 121 % of control
- T/C ([2]; dose: 4.0 mg/kg/injection, schedule: Q01DX010 (ip), vehicle: carboxymethylcellulose (CMC)): 121 % of control
- T/C ([1]; dose: 1.0 mg/kg/injection): 97 % of control
- T/C ([1]; dose: 2.0 mg/kg/injection): 86 % of control

Compound: C=C(COC(C)(C)C)CN(C)C
- T/C ([2]; dose: 25.0 mg/kg/injection, schedule: Q01DX009 (ip), vehicle: acetone): 92 % of control
- T/C ([2]; dose: 50.0 mg/kg/injection, schedule: Q01DX009 (ip), vehicle: acetone): 100 % of control
- T/C ([2]; dose: 100.0 mg/kg/injection, schedule: Q01DX009 (ip), vehicle: acetone): 96 % of control

Compound: N#Cc1c(N)sc2c1CCCC2
- T/C ([2]; dose: 100.0 mg/kg/injection, schedule: Q01DX009 (ip), vehicle: saline): 109 % of control
- T/C ([2]; dose: 200.0 mg/kg/injection, schedule: Q01DX009 (ip), vehicle: saline): 109 % of control
- T/C ([2]; dose: 400.0 mg/kg/injection, schedule: Q01DX009 (ip), vehicle: saline): 104 % of control

Compound: C=Cn1ccc(=O)[nH]c1=O (tested in a mixture with another compound)
- T/C [2, 3]: 86 % of control
- T/C ([2]; dose: 100.0 mg/kg/injection, schedule: Q01DX009 (ip), vehicle: saline with Tween-80): 121 % of control
- T/C [2, 4]: 93 % of control

Compound: CCn1c(C)nc2cc(C(N)=O)ccc21
- T/C ([2]; dose: 50.0 mg/kg/injection, schedule: Q04DX003 (ip), vehicle: saline with Tween-80): 95 % of control
- T/C ([2]; dose: 100.0 mg/kg/injection, schedule: Q04DX003 (ip), vehicle: saline with Tween-80): 90 % of control
- T/C [2, 5]: 113 % of control

Compound: OCC1CN(c2ccccc2)N=N1 (stereo not drawn)
- T/C ([2]; dose: 50.0 mg/kg/injection, schedule: Q04DX002 (ip), vehicle: saline + alcohol): 107 % of control
- T/C ([2]; dose: 100.0 mg/kg/injection, schedule: Q04DX002 (ip), vehicle: saline + alcohol): 107 % of control
- T/C ([2]; dose: 200.0 mg/kg/injection, schedule: Q04DX002 (ip), vehicle: saline + alcohol): 116 % of control

Compound: O=[N+]([O-])c1ccc(NCc2ccccc2)c2c1no[n+]2[O-]
- T/C ([2]; dose: 35.0 mg/kg/injection, schedule: Q01DX009 (ip), vehicle: saline with Tween-80): 92 % of control
- T/C ([2]; dose: 70.0 mg/kg/injection, schedule: Q01DX009 (ip), vehicle: saline with Tween-80): 91 % of control
- T/C ([2]; dose: 140.0 mg/kg/injection, schedule: Q01DX009 (ip), vehicle: saline with Tween-80): 92 % of control

Compound: CC(C)(C)OOC(=O)c1ccccc1O
- T/C ([2]; dose: 12.5 mg/kg/injection, schedule: Q04DX003 (ip), vehicle: other): 102 % of control
- T/C ([2]; dose: 25.0 mg/kg/injection, schedule: Q04DX003 (ip), vehicle: other): 101 % of control
- T/C [2, 3]: 122 % of control
- T/C ([2]; dose: 50.0 mg/kg/injection, schedule: Q04DX003 (ip), vehicle: other): 101 % of control
- T/C ([2]; dose: 100.0 mg/kg/injection, schedule: Q04DX003 (ip), vehicle: other): 118 % of control

Compound: N=C(N)SCc1c2ccccc2cc2ccccc12
- T/C [2, 5]: 163 % of control
- T/C ([2]; dose: 300.0 mg/kg/injection, schedule: Q04DX003 (ip), vehicle: saline with Tween-80): 90 % of control

Compound: C/C(=N\Nc1ccc([N+](=O)[O-])cc1[N+](=O)[O-])C(F)(F)F
- T/C ([2]; dose: 44.0 mg/kg/injection, schedule: Q01DX009 (ip), vehicle: other): 95 % of control
- T/C ([2]; dose: 66.0 mg/kg/injection, schedule: Q01DX009 (ip), vehicle: other): 100 % of control
- T/C ([2]; dose: 100.0 mg/kg/injection, schedule: Q01DX009 (ip), vehicle: other): 100 % of control
- T/C ([2]; dose: 100.0 mg/kg/injection, schedule: Q04DX003 (ip), vehicle: Klucel (hydroxypropylcellulose) (HPC)): 100 % of control
- T/C ([2]; dose: 150.0 mg/kg/injection, schedule: Q01DX009 (ip), vehicle: other): 95 % of control
- T/C [2, 4]: 115 % of control
- T/C ([2]; dose: 200.0 mg/kg/injection, schedule: Q04DX003 (ip), vehicle: Klucel (hydroxypropylcellulose) (HPC)): 100 % of control
- T/C ([2]; dose: 400.0 mg/kg/injection, schedule: Q01DX009 (ip), vehicle: saline with Tween-80): 100 % of control
- T/C ([2]; dose: 400.0 mg/kg/injection, schedule: Q04DX003 (ip), vehicle: Klucel (hydroxypropylcellulose) (HPC)): 100 % of control

Source: PubChem BioAssay AID328 (DTP/NCI, 2004)
